This is an account of results in patent US20060014193A1, “Nucleoside phosphoramidates and nucleoside phosphoramidases” (priority 2004, published 2006).

Marks after values point to notes of the source that are not given here.

For one data set, the target named is T1, Yeast HNT (Saccharomyces cerevisiae, UniProt Q04344).
T1 sequence (Q04344 1-158): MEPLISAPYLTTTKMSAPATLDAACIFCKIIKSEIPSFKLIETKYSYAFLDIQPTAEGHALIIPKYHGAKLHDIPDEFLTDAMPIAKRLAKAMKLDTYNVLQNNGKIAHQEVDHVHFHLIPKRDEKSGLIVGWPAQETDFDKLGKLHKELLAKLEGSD
Particulars: Bieganowski et al, 2002; cited from earlier work.

The target in another data set is T2, ycfF (Escherichia coli, UniProt P0ACE7).
T2 construct: made in house
Briefly: Catalytic activity (velocity) of cloned, purified phosphoramidase with AMPNH2. The class given is biochemical, E. coli. Particulars: pH 7.2, room temperature, 10 mM AMPNH2. Here is the method:
The putative bacterial phosphoramidase was cloned and over-expressed as described for the human homologue, and found to be a nucleoside phosphoramidase.
(§1) Velocity of the enzymes was determined at pH 7.2 at room temperature in the presence of 10 mM AMPNH2.

Data set [1] concerns the target T3, BL21 Star (WT) cell lysates (Escherichia coli, UniProt P0ACE7).
T3 construct: endogenous in cells; host or cells: E. coli BL21 Star
Briefly: 31P NMR phosphoramidase activity in cell lysates. The format is biochemical, E. coli. Particulars: for Specific activity: 0.5 mg protein. On the procedure:
(§2) Phosphoramidase activity in cell lysates was measured by the ^1H-decoupling mode of phosphorus-31 NMR spectroscopy (Varian VAC-300 spectrometer), which can clearly distinguish the substrate, AMP-NH2, and the product, adenosine 5′-monophosphate (AMP). NMR spectrometry is suitable for quantitation by integration of the area under the peak, which is proportional to the amount of nuclei present. The relative ratio of peak areas can be used to calculate the amount of turnover corrected based on a standard curve.
Cell lysates from E. coli Tuner(DE3)pLacI cells (Novagen) were obtained by treatment with lysozyme (1 mg/ml) and the DNA was precipitated by protamine sulfate followed by centrifugation to remove cell debris. The supernatant was dialyzed extensively against Buffer A (20 mM Tris (pH 7.0); 1 mM EDTA; 1 mM DTT, 0.01 mM PMSF) to remove cellular phosphates and nucleotides. […] The reactions were terminated by snap freezing in a dry ice/acetone slush bath and lyophilized for 5 h. The samples were then dissolved in NMR buffer (600 μL, 50 mM EDTA, 20 mM HEPES (pH 7.2), and 1 mM TMP (trimethylphosphate, internal standard)) and the insoluble portion was spun down by centrifugation at 12,500×g for 5 min. A ^31P NMR spectrum was then collected for the supernatant. For the low pH control experiment, 10 mM AMP-NH2 in reaction buffer (500 μL, pH 2.0) was incubated at 37° C. for 12 h and the 31p signal was detected under the same conditions.
To determine if E. coli hinT is solely responsible of the observed lysates' phosphoramidase activity, a mutant strain, BB1, in which the hinT gene was replace with the chloramphenicol resistance marker, was constructed. The phosphoramidase activities of the wild-type E. coli BL21 Star strain and the mutant strain lysates were determined (Table 3). […] (Table 2). Therefore, the adenosine phosphoramidase activity observed for E. coli cell lysates appears to be totally dependent on hinT.

The nature of data set [2]: Low pH control: chemical stability in pH 2.0 buffer by 31P NMR. The format is physicochemical. The conditions noted are these: 10 mM, 37° C. Here is the method:
(§3) Cell lysates from E. coli Tuner(DE3)pLacI cells (Novagen) were obtained by treatment with lysozyme (1 mg/ml) and the DNA was precipitated by protamine sulfate followed by centrifugation to remove cell debris. The supernatant was dialyzed extensively against Buffer A (20 mM Tris (pH 7.0); 1 mM EDTA; 1 mM DTT, 0.01 mM PMSF) to remove cellular phosphates and nucleotides. Phosphate free cell lysates (0.75 mg total protein) were incubated with 5 mM AMP-NH2 in 0.5 ml reaction buffer (0.5 mM MgCl2, 20 mM HEPES (pH 7.2)) at 37° C. for intervals of 15 min, 30 min, and 12 h. The reactions were terminated by snap freezing in a dry ice/acetone slush bath and lyophilized for 5 h. The samples were then dissolved in NMR buffer (600 μL, 50 mM EDTA, 20 mM HEPES (pH 7.2), and 1 mM TMP (trimethylphosphate, internal standard)) and the insoluble portion was spun down by centrifugation at 12,500×g for 5 min. A ^31P NMR spectrum was then collected for the supernatant. For the low pH control experiment, 10 mM AMP-NH2 in reaction buffer (500 μL, pH 2.0) was incubated at 37° C. for 12 h and the 31p signal was detected under the same conditions.
Tuner(DE3)pLacI, a modified E. coli BL21 strain, was used to determine phosphoramidase activity in cell lysates. […]

Data set [3] deals with T4, E. coli Tuner(DE3)pLacI cell lysates (Escherichia coli, UniProt P0ACE7).
T4 construct: Cell lysates from E. coli Tuner(DE3)pLacI cells (Novagen) were obtained by treatment with lysozyme; host or cells: E. coli Tuner(DE3)pLacI
Briefly: 31P NMR phosphoramidase activity in cell lysates. The format is biochemical. On the procedure:
as §2
as §3, with “The samples were then dissolved in NMR buffer (600 μL, 50 mM EDTA, 20 mM HEPES (pH 7.2), and 1 mM TMP (trimethylphosphate, internal standard)) and the insoluble portion was spun down by centrifugation at 12,500×g for 5 min. A ^31P NMR spectrum was then collected for the supernatant.” left out, “conditions. […]” for “conditions.”

The target of another data set is T5, Rabbit HINT1 (Oryctolagus cuniculus, UniProt P80912).
T5 construct: made in house; host or cells: E. coli hinT deletion mutant
The conditions noted are these: Bieganowski et al, 2002; cited from earlier work.

The target in data set [4] is T6, hHINT1 (Homo sapiens, UniProt P49773). Briefly: Catalytic activity (velocity) of cloned, purified phosphoramidase with AMPNH2. The format is biochemical.
Source text: The enzyme responsible for hydrolysis of AZT amino acid phosphoramidates was cloned and characterized. After construction of a cDNA library from peripheral blood mononuclear cells (PBMCs) in T7Select10-3b phage, the phage display technique was employed to isolate the enzyme by affinity chromatography. After three rounds of phage selection and ampilification with an affinity column constructed from the L-tryptophan carbamate, DNA from ten selected plaques was amplified by PCR and sequenced. […] Hint1 is a member of the HIT protein superfamily, which consists of a recently identified adenosine 5′-monophosphoramide hydrolases from rabbit and yeast.
as §1

In data set [5] the target is T6, hHINT1. The conditions noted are these: literature (J. Biol. Chem. 2004, 279, 18711; 2002, 277, 10852); cited from earlier work.

T6 sequence (P49773 whole entry): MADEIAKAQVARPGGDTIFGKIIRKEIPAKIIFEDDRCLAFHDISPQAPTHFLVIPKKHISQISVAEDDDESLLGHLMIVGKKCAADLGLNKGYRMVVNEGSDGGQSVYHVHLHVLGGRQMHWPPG
T3 sequence (P0ACE7 whole entry): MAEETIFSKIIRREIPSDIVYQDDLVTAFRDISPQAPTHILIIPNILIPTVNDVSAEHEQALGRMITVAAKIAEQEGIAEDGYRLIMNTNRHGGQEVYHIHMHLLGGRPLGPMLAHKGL
T4 sequence (P0ACE7 whole entry): as above
T2 sequence (P0ACE7 whole entry): as above
T5 sequence (P80912 whole entry): as the sequence (P49773 whole entry) above, with R37Q, V65A, D69A, N91K, H122N counted along it

The term Km denotes the substrate concentration at which the rate is half of its maximum. Turning to `Nc1ncnc2c1ncn2[C@@H]1O[C@H](COP(N)(=O)O)[C@@H](O)[C@H]1O` [AMP-NH2, Adenosine 5′-monophosphoramidate], the Velocity at Yeast HNT was 7.57^b nmol/μg/min; on ycfF, 14.19 nmol/µg/min; on Rabbit HINT1, 1.71^b nmol/μg/min; on hHINT1 [4] (pH 7.2, room temperature, 10 mM AMPNH2) it was 5.46 nmol/µg/min. The “Specific activity of BL21 Star WT cell lysates” value in data set [1] is 20.1 (±7.7) nmol mg^−1 min^−1. For the same compound, the “Specific activity” value turned out to be 15.5 nmol/mg/min in data set [1] (30 min) and 26.4 nmol/mg/min in data set [1] (70 min). The compound also registered an Average specific activity in data set [1] (average) of 20.95 ± 7.71 nmol/mg/min. For the same compound, the “Stability at pH 2.0 (no detectable AMP or Pi)” value in data set [2] was “at least 12 h”. Further, in data set [3] (12 h incubation, 37° C.), the “Extent of hydrolysis to AMP” value was “complete hydrolysis”. For the same compound, the “Hydrolysis rate by E. coli cell lysates” value in data set [3] (pH 7.0, 37° C., 5 mM, averaged for 15 min and 30 min) is on record as 76.3 (±20.9) nmol mg^−1 min^−1. In addition, the “Hydrolysis by over-expressed, purified human Hint1” value on hHINT1 [4] was “efficiently hydrolyze”. Besides, on hHINT1 [5], the Kcat is 0.2 s⁻¹. The Km at hHINT1 [5] was 0.068 µM.
